This passage reports TGI results from PubChem BioAssay (NCI).

Holding throughout (test): NCI-60 cell line screen, 48 h
The subject of assay [1] is EKVX NSCLC.
Assay [2] concerns NCI-H23 lung.
For assay [3], the system named is NCI/ADR-RES ovarian.
For assay [4], the system named is MALME-3M melanoma.
In assay [5] the test system is OVCAR-5 ovarian.
Assay [6] relates to SK-MEL-2 melanoma.
Assay [7] concerns SNB-75 CNS.
The test system of assay [8] is OVCAR-3 ovarian.
The test system of assay [9] is HT29 colon.
For assay [10], the system named is SF-295 CNS.
In assay [11] the test system is RXF 393 renal.
Assay [12] relates to LOX IMVI melanoma.
Assay [13] has as its system RPMI-8226 leukemia.
Assay [14] deals with SN12C renal.
In assay [15] the test system is SF-268 CNS.
Assay [16] relates to SNB-19 CNS.
In assay [17] the test system is NCI-H460 lung.
The test system of assay [18] is SK-MEL-5 melanoma.
Assay [19] deals with A549 NSCLC.
The subject of assay [20] is OVCAR-4 ovarian.

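Where inhibition never reached the appropriate level, the endpoint shown equals the highest concentration tested. Otherwise, values were interpolated linearly from a five-concentration, 48-hour dose response in 96-well plates. TGI denotes the concentration required for complete inhibition of growth.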

On to `c1cc2c3c(c1)c1cc4c(cc1c[n+]3CC2)OCO4`, for which the TGI was 14.4 µM in assay [1]; 13.8 µM in assay [2]; above 225 µM in assay [3]; 3.88 µM in [4]; 24.9 µM in assay [5]; 9.35 µM in assay [6]. Further, the TGI in assay [7] was 8.09 µM; in [8] it was 16.2 µM; in assay [9], 67 µM; in assay [10] it was 13.1 µM; in [11], 32.5 µM; in assay [12], above 96.1 µM. Also, the TGI in [13] amounted to 14 µM; in assay [14] it was 9.01 µM; in assay [15], 5.26 µM; in assay [16], 13.5 µM; in assay [17] it was 12.2 µM; in [18] it was 9.08 µM. For the same compound, the TGI was determined as 10.2 µM in assay [19] and 47.7 µM in assay [20].

Consider `c1ccc2c(c1)c1ccccc1n2Cn1c2ccccc2c2ccccc21`, for which the TGI in assay [1], in assay [2], in assay [3], in assay [4], in assay [5] and in assay [6] was above 100 µM in each case. In addition, the TGI in [7], in assay [8], in assay [9], in assay [10], in [11] and in assay [12] was above 100 µM each time. In addition, the TGI in assay [13], in [14], in [15], in [16], in [17] and in [18] was above 100 µM throughout. Besides, the TGI in [19] and in assay [20] was above 100 µM each time.

As for `COc1cc(-c2ccc(N=Nc3ccc4c(S(=O)(=O)O)cc(S(=O)(=O)O)c(N)c4c3O)c(OC)c2)ccc1N=Nc1ccc2c(S(=O)(=O)O)cc(S(=O)(=O)O)c(N)c2c1O`, the TGI in assay [1], in [2], in assay [3], in [4], in [5] and in assay [6] was above 100 µM in each case. Moreover, the TGI in assay [7], in [8], in assay [9], in [10], in [11] and in [12] was above 100 µM each time. The TGI in [13], in [14], in [15], in assay [16], in assay [17] and in [18] was above 100 µM throughout. For the same compound, the TGI in assay [19] and in assay [20] was above 100 µM each time.
